Measured values as given in patent US6821980B1, “Substituted 5-benzyl-2,4-diaminopyrimidines” (Basilea Pharmaceutica AG, priority 1999, dated 2004).
pIC50: −log10 of the molar value. In brackets after ≈: the same amount, converted by molar mass. Where two headings read alike, the source gives them in different places.

Columns and labels:
[1] = test system: Streptococcus pneumoniae 1/1; test: MIC against Streptococcus pneumoniae 1/1; assay type: cell-based
[2] = test system: Staphylococcus aureus 101; test: MIC against Staphylococcus aureus 101; assay type: cell-based; conditions: Staphylococcus aureus 101, MRSA- and trimethoprim-resistant, clinical isolate; for MIC: read-out: MIC Sa101
[3] = molecular target: T1, purified DHFR of strain Sp1/1 of Streptococcus pneumoniae (Streptococcus pneumoniae serotype 4, UniProt Q54801); assay type: biochemical; conditions: IC50 against purified DHFR of strain Sp1/1
T1 sequence (Q54801 1-168 I100L): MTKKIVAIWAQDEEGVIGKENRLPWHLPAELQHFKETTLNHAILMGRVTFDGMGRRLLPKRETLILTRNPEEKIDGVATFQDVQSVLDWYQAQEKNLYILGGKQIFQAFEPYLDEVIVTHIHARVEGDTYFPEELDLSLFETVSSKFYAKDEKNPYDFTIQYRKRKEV

[4] = molecular target: purified DHFR of strain 157/4696 of Staphylococcus aureus (Staphylococcus aureus, UniProt P13955); test: biochemical
[5] = Table 2, Streptococcus pneumoniae 1/1, trimethoprim- and penicillin-resistant, serotype 6, clinical isolate, read-out: MIC Sp1/1

Sequence of purified DHFR of strain 157/4696 of Staphylococcus aureus (P13955 whole entry): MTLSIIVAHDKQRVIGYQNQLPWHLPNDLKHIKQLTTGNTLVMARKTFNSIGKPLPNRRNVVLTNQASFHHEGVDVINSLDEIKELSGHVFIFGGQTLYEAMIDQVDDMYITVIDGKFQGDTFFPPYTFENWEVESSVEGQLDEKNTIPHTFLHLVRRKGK

CCOc1cc(Cc2cnc(N)nc2N)cc(OCCC2CCCCO2)c1-c1ccc(O)cc1 (racemic) [Example 08-t, (RS)-4′-(2,4-Diamino-pyrimidin-5-ylmethyl)-6′-ethoxy-2′-[2-(tetrahydro-pyran-2-yl)-ethoxy]-biphenyl-4-ol]
MIC [1, 5]: 2 µg/mL (≈ 4.31 µM) | MIC ([2]; Table 2): 8 µg/mL (≈ 17.2 µM) | pIC50 ([3]; Table 2): 7.60 | pIC50 [4]: 5.62

CCOc1cc(Cc2cnc(N)nc2N)cc(OS(=O)(=O)C2CCOCC2)c1-c1ccc(N)c(F)c1 [Example 41-b, Tetrahydronyran-4-sulphonic acid 4′-amino-4-(2,4-diamino-pyrimidin-5-ylmethyl)-6-ethoxy-3′-fluoro-biphenyl-2-yl ester]
MIC [1, 5]: 0.5 µg/mL (≈ 0.966 µM) | MIC ([2]; Table 2): 4 µg/mL (≈ 7.73 µM) | pIC50 ([3]; Table 2): 8.21 | pIC50 [4]: 6.60

CCOc1cc(Cc2cnc(N)nc2N)cc(OS(=O)(=O)C(C)CC)c1-c1ccc(N)c(C)c1 (centres unmarked) [Example 35e, Butane-2-sulphonic acid 4′-amino-4-(2,4-diamino-pyrimidin-5-ylmethyl)-6-ethoxy-3′-methyl-biphenyl-2-yl ester]
MIC ([1]; Table 1, Streptococcus pneumoniae 1/1, trimethoprim- and penicillin-resistant, serotype 6, clinical isolate, read-out: MIC Sp1/1): 0.5 µg/mL (≈ 1.03 µM) | MIC ([2]; Table 1): 1 µg/mL (≈ 2.06 µM) | pIC50 ([3]; Table 1): 8.34 | pIC50 [4]: 7.21

CCOc1cc(Cc2cnc(N)nc2N)cc(OS(=O)(=O)C(C)CC)c1-c1ccc(OC)c(N)c1 (centres unmarked) [Example 35-d, Butane-2-sulphonic acid 3′-amino-4-(2,4-diamino-gyrimidin-5-ylmethyl)-6-ethoxy-4′-methoxy-biphenyl-2-yl ester]
MIC [1, 5]: 1 µg/mL (≈ 1.99 µM) | MIC ([2]; Table 2): 2 µg/mL (≈ 3.99 µM) | pIC50 ([3]; Table 2): 8.37 | pIC50 [4]: 7.02

CCOc1cc(Cc2cnc(N)nc2N)cc(OS(=O)(=O)CC(C)(C)C)c1-c1ccc(N)cc1 [Example 37-c, 2,2-Dimethyl-propane-1-sulphonic acid 4′-amino-4-(2,4-diamino-pyrimidin-5-ylmethyl)-6-ethoxy-biphenyl-2-yl ester]
MIC [1, 5]: 0.5 µg/mL (≈ 1.03 µM) | MIC ([2]; Table 2): 4 µg/mL (≈ 8.24 µM) | pIC50 ([3]; Table 2): 8.74 | pIC50 [4]: 6.24

CCOc1cc(Cc2cnc(N)nc2N)cc(OS(=O)(=O)N2CCCCC2)c1-c1cccc(N)c1 [Example 19-b, Piperidine-1-sulphonic acid 3′-amino-4-(2,4-diamino-pyrimidin-5-ylmethyl)-6-ethoxy-biphenyl-2-yl ester]
MIC [1, 5]: 0.5 µg/mL (≈ 1 µM) | MIC ([2]; Table 2): 1 µg/mL (≈ 2.01 µM) | pIC50 ([3]; Table 2): 8.62 | pIC50 [4]: 6.89

CCOc1cc(Cc2cnc(N)nc2N)cc(OCC)c1-c1ccc(N)nc1 [Example 04-q, 5-[4-(6-Amino-pyridin-3-yl)-3,5-diethoxy-benzyl]-pyrimidine-2,4-diamine]
MIC [1, 5]: 4 µg/mL (≈ 10.5 µM) | MIC ([2]; Table 2): 8 µg/mL (≈ 21 µM) | pIC50 ([3]; Table 2): 7.16 | pIC50 [4]: 5.72

CCOc1cc(Cc2cnc(N)nc2N)cc(OCC)c1-c1ccc(CO)s1 [Example 02-ab, [5-[4-(2,4-Diamino-pyrimidin-5-ylmethyl)-2,6-diethoxy-phenyl]-thiophen-2-yl]-methanol]
MIC [1, 5]: 2 µg/mL (≈ 4.99 µM) | MIC ([2]; Table 2): 4 µg/mL (≈ 9.99 µM) | pIC50 ([3]; Table 2): 7.42 | pIC50 [4]: 6.06

CCOc1cc(Cc2cnc(N)nc2N)cc(OCCc2ccccn2)c1-c1cccc(N)c1 [Example 07-g, 5-[3′-Amino-6-ethoxy-2-(2-pyridin-2-yl-ethoxy)-biphenyl-4-ylmethyl]-pyrimidine-2,4-diamine]
MIC [1, 5]: 8 µg/mL (≈ 17.5 µM) | MIC ([2]; Table 2): 8 µg/mL (≈ 17.5 µM) | pIC50 ([3]; Table 2): 7.52 | pIC50 [4]: 6.19

CCOc1cc(Cc2cnc(N)nc2N)cc(OCC)c1-c1ccc2c(c1)NCCO2 [Example 02-h, 5-[4-(3,4-Dihydro-2H-benzo[1.4]oxazin-6-yl)-3,5-diethoxy-benzyl]-pyrimidine-2,4-diamine]
MIC [1, 5]: 4 µg/mL (≈ 9.49 µM) | MIC ([2]; Table 2): 8 µg/mL (≈ 19 µM) | pIC50 ([3]; Table 2): 7.42 | pIC50 [4]: 5.92

CCOc1cc(Cc2cnc(N)nc2N)cc(OCC(C)(C)C=CC#N)c1-c1cccc(N)c1 [Example 07-f, (E)-5-[3′-Amino-4-(2,4-diamino-pyrimidin-5-ylmeth)-6-ethoxy-biphenyl-2-yloxy]-4,4-dimethyl-pent-2-ene-nitrile]
MIC ([1]; Streptococcus pneumoniae, 1/1, read-out: MIC Sp1/1): 2 µg/mL (≈ 4.36 µM) | MIC ([2]; Table 2): 8 µg/mL (≈ 17.4 µM) | pIC50 ([3]; Table 2): 7.26 | pIC50 [4]: 6.12

CCOc1cc(Cc2cnc(N)nc2N)cc(OC2CCC(C#N)C2)c1-c1ccc(O)cc1 (centres unmarked) [Example 08-x, 3-[4-(2,4-Diamino-pyximidin-5-ylmethyl)-6-ethoxy-4′-hydroxy-biphenyl-2-yloxy]-cyclopentanecarbonitrile]
MIC [1, 5]: 4 µg/mL (≈ 8.98 µM) | MIC ([2]; Table 2): 8 µg/mL (≈ 18 µM) | pIC50 ([3]; Table 2): 7.60 | pIC50 [4]: 5.85

CCOc1cc(Cc2cnc(N)nc2N)cc(OS(=O)(=O)N(C)CC)c1-c1ccc(N)c(F)c1 [Example 28-b, N-Ethyl-N-methyl-sulphamic acid 4′-amino-4-(2,4-diamino-pyrimidin-5-ylmethyl)-6-ethoxy-3′-fluoro-biphenyl-2-yl ester]
MIC [1, 5]: 1 µg/mL (≈ 2.04 µM) | MIC ([2]; Table 2): 2 µg/mL (≈ 4.08 µM) | pIC50 ([3]; Table 2): 8.17 | pIC50 [4]: 6.49

CCOc1cc(Cc2cnc(N)nc2N)cc(OCC(F)(F)F)c1-c1ccc(O)cc1 [Example 08-s]
MIC [1, 5]: 2 µg/mL (≈ 4.6 µM) | MIC ([2]; Table 2): 4 µg/mL (≈ 9.21 µM) | pIC50 ([3]; Table 2): 7.51 | pIC50 [4]: 5.43

CCOc1cc(Cc2cnc(N)nc2N)cc(OS(=O)(=O)N2CCOCC2)c1-c1ccc(N)cc1 [Example 22-d, Morpholine-4-sulphonic acid 4′-amino-4-(2,4-diamino-pyrimidin-5-ylmethyl)-6-ethoxy-biphenyl-2-yl ester]
MIC [1, 5]: 1 µg/mL (≈ 2 µM) | MIC ([2]; Table 2): 2 µg/mL (≈ 4 µM) | pIC50 ([3]; Table 2): 8.21 | pIC50 [4]: 7.35

CCOc1cc(Cc2cnc(N)nc2N)cc(OCC)c1-c1ccc2cc(O)ccc2c1 [Example 02-f, 6-[4-(2,4-Diamino-pyrimidin-5-ylmethyl)-2,6-diethoxy-phenyl]-naphthalen-2-ol]
MIC [1, 5]: 4 µg/mL (≈ 9.29 µM) | MIC ([2]; Table 2): 4 µg/mL (≈ 9.29 µM) | pIC50 ([3]; Table 2): 7.55 | pIC50 [4]: 5.77

CCOc1cc(Cc2cnc(N)nc2N)cc(OS(=O)(=O)CC)c1-c1ccc(OC)cc1 [Example 16-b, Ethanesulphonic acid 4-(2,4-diamino-pyrimidin-5-ylmethyl)-6-ethoxy-4′-methoxy-biphenyl-2-yl ester]
MIC [1, 5]: 2 µg/mL (≈ 4.36 µM) | MIC ([2]; Table 2): 2 µg/mL (≈ 4.36 µM) | pIC50 ([3]; Table 2): 7.41 | pIC50 [4]: 7.00

CCOc1cc(Cc2cnc(N)nc2N)cc(OS(=O)(=O)N(C)C)c1-c1ccc(N)cc1 [Example 22-a, Dimethylsulphamic acid 4′-amino-4-(2,4-diamino-pyrimidin-5-ylmethyl)-6-ethoxy-biphenyl-2-yl ester]
MIC [1, 5]: 1 µg/mL (≈ 2.18 µM) | MIC ([2]; Table 2): 2 µg/mL (≈ 4.36 µM) | pIC50 ([3]; Table 2): 8.51 | pIC50 [4]: 7.32

CCOc1cc(Cc2cnc(N)nc2N)cc(OCC)c1-c1ccc(OC)c(OC)c1 [Example 02-l, 5-(2,6-Diethoxy-3′,4′-dimethoxy-biphenyl-4-ylmethy)-pyrimidine-2,4-diamine]
MIC [1, 5]: 4 µg/mL (≈ 9.42 µM) | MIC ([2]; Table 2): 8 µg/mL (≈ 18.8 µM) | pIC50 ([3]; Table 2): 6.80 | pIC50 [4]: 5.10

CCOc1cc(Cc2cnc(N)nc2N)cc(O[C@@H]2CCC[C@H]2OC)c1-c1ccc(O)cc1 (relative stereo) [Example 08-y, 5-[6-Ethoxy-2((trans)-2-methoxy-cyclopentyloxy)-4′-hydroxy-biphenyl-4-ylmethtl]-pyrimidine-2,4-diamine]
MIC [1, 5]: 4 µg/mL (≈ 8.88 µM) | MIC ([2]; Table 2): 8 µg/mL (≈ 17.8 µM) | pIC50 ([3]; Table 2): 7.02 | pIC50 [4]: 5.57

CCOc1cc(Cc2cnc(N)nc2N)cc(OC2CCC2)c1-c1ccc2c(c1)OCO2 [Example 10-e, 5-(4-Benzo[1.31]dioxol-5-yl-3-cyclobutoxy-5-ethoxy-benzyl)-pyrmidine-2,4-diamine]
MIC [1, 5]: 8 µg/mL (≈ 18.4 µM) | MIC ([2]; Table 2): 8 µg/mL (≈ 18.4 µM) | pIC50 ([3]; Table 2): 7.30 | pIC50 [4]: 5.74

CCOc1cc(Cc2cnc(N)nc2N)cc(OCC2CC2)c1-c1ccc(OCCO)cc1 [Example 55-, 2-[2′-Cyclopropylmethoxy-4′-(2,4-diamino-pyrimidin-5-ylmethyl)-6′-ethoxy-biphenyl-4-yloxy]-ethanol]
MIC [1, 5]: 4 µg/mL (≈ 8.88 µM) | MIC ([2]; Table 2): 8 µg/mL (≈ 17.8 µM) | pIC50 ([3]; Table 2): 7.32 | pIC50 [4]: 5.77

CCOc1cc(Cc2cnc(N)nc2N)cc(OCC)c1-c1ccc2[nH]ccc2c1 [Example 02-d, 5-(3,5-Diethoxy-4-(1H-indol-5-yl)-benzyl)-pyrimidine-2,4-diamine]
MIC [1, 5]: 1 µg/mL (≈ 2.48 µM) | MIC ([2]; Table 2): 8 µg/mL (≈ 19.8 µM) | pIC50 ([3]; Table 2): 7.46 | pIC50 [4]: 5.85

CCOc1cc(Cc2cnc(N)nc2N)cc(OCC)c1-c1ccc(OS(C)(=O)=O)cc1 [Example 45-, Methanesulphonic acid 4′-(2,4-diamino-pyrimidin-5-ylmethyl)-2′,6′-diethoxy-biphenyl-4-yl ester]
MIC [1, 5]: 4 µg/mL (≈ 8.72 µM) | MIC ([2]; Table 2): 8 µg/mL (≈ 17.4 µM) | pIC50 ([3]; Table 2): 6.89 | pIC50 [4]: 5.62

CCOc1cc(Cc2cnc(N)nc2N)cc(OCC2CC2)c1-c1cccc(N)c1 [Example 7a, 5-(3′-Amino-6-cyclopropylmethoxy-2-ethoxy-biphenyl-4-ylmethyl)-pirimidine-2,4-diamine]
MIC Sp1/1 ([1]; Table 1, Streptococcus pneumoniae 1/1, trimethoprim- and penicillin-resistant, serotype 6, clinical isolate): 1 µg/mL (≈ 2.47 µM) | MIC Sa101 ([2]; Table 1): 8 µg/mL (≈ 19.7 µM) | pIC50 ([3]; Table 1): 8.68 | pIC50 ([4]; Table 1, IC50 against purified DHFR of strain 157/4696 (highly trimethoprim-resistant; clinical isolate), read-out: DHFR Sa1): 6.29

CCOc1cc(Cc2cnc(N)nc2N)cc(OCC)c1-c1ccc(CN(C)CCF)cc1 [Example 04-ac, 5-(2,6-Diethoxy-4′-{[N-(2-fluoro-ethyl)-N-methyl-amino]-methyl}-biphenyl-4-ylmethyl)-pyrimidine-2,4-diamine]
MIC [1, 5]: 4 µg/mL (≈ 8.82 µM) | MIC ([2]; Table 2): 8 µg/mL (≈ 17.6 µM) | pIC50 ([3]; Table 2): 7.23 | pIC50 [4]: 6.35
